Laboratory results reported in US20250320279A1, “UNGULATE-DERIVED POLYCLONAL IMMUNOGLOBULIN SPECIFIC FOR INFLUENZA VIRUS AND USES THEREOF” (priority 2021, published 2025).

System: oseltamivir-resistant influenza A/Hong Kong/2369/2009 (H1N1pdm) H275Y
Parameters: species or system BALB/c mice
Conditions: mouse, in vivo

In the case of `CCOC(=O)C1=C[C@@H](OC(CC)CC)[C@H](NC(C)=O)[C@@H](N)C1` [oseltamivir], the “protection from weight loss (mean body weights)” value is reported as “did not protect mice from weight loss”.
